Results reported in patent US20010049374A1 (priority 1997, published 2001).

These molecules were tested against T1, urokinase enzyme Abbokinase (Homo sapiens, UniProt P00749) (assay: Determination of urokinase inhibition (Abbokinase, chromogenic substrate S-2444)). Conditions: IC50, Inhibitory potency against urokinase; substrate S-2444 at 200 μM, enzyme 2-3 nM, pH 7.4, 405 nm.
T1 construct: purchased Abbott Laboratories, Abbott Park, Ill
Type: biochemical

**Q.** `[H]/N=C(/N)c1ccc2cc(C=CSc3ccccc3)ccc2c1` [Example 80, (E)-6-[2-(Phenylthio)ethenyl]-2-naphthalenecarboximidamide] was tested. Which IC50 did it give?
**A.** 1930 nM

**Q.** Which IC50 does the source give for `[H]/N=C(/N)c1ccc2cc(C=Cc3ccco3)ccc2c1` [Example 81, (E)-6-[2-(2-Furanyl)ethenyl]-2-naphthalenecarboximidamide] here?
**A.** 3210 nM

**Q.** Which IC50 does the source give for `[H]/N=C(/N)c1ccc2cc(C=Cn3ccnc3)ccc2c1` [Example 82, (E)-6-[2-(1H-Imidazol-1-yl)ethenyl]-2-naphthalenecarboximidamide] here?
**A.** 3080 nM

**Q.** `N=C(N)c1ccc2cc(OCCc3ccc(N)cc3)ccc2c1` [Example 89, 6-[2-(4-Aminophenyl)ethoxy]-2-naphthalenecarboximidamide] was tested. Which IC50 did it give?
**A.** 6500 nM

**Q.** Which IC50 does the source give for `COc1ccc2ccc(C(=N)N)cc2c1Nc1ncccn1` [Example 91, 7-Methoxy-8-[2-pyrimidinyl(amino)]-2-naphthalenecarboximidamide] here?
**A.** 50 nM

**Q.** For `[H]/N=C(/N)c1ccc2cc(C=Cc3ccc(CN)cc3)ccc2c1` [Example 98, (E)-6-[2-[4-(aminomethyl)phenyl]ethenyl]-2-naphthalenecarboximidamide], which IC50 is on record?
**A.** 240 nM

**Q.** `COc1ccc2ccc(C(=N)N)cc2c1NCc1ccccc1` [Example 101, 7-methoxy-8-[(phenylmethyl)amino]-2-naphthalenecarboximidamide] was tested. Which IC50 did it give?
**A.** 800 nM

**Q.** How did the IC50 turn out when `COc1ccc(Nc2c(OC)ccc3ccc(C(=N)N)cc23)cc1` [Example 103, 7-methoxy-8-[(4-methoxyphenyl)amino]-2-naphthalenecarboximidamide] was run?
**A.** 570 nM

**Q.** With `[H]/N=C(/N)c1ccc2cc(C=Cc3ccc([C@@H](N)CO)cc3)ccc2c1` [Example 105, (E)-6-[2-[4-(1R-amino-2-hydroxyethyl)phenyl]ethenyl]-2-naphthalenecarboximidamide] as the molecule, how does the IC50 read?
**A.** 840 nM

**Q.** How did the IC50 turn out when `COc1ccc2ccc(C(=N)N)cc2c1Nc1ncccn1` [Example 106, 7-methoxy-8-(2-pyrimidinylamino)-2-naphthalenecarboximidamide] was run?
**A.** 760 nM

**Q.** `N=C(N)c1ccc2cc(-c3cccc(C=O)c3)ccc2c1` [Example 111, 6-(3-formylphenyl)-2-naphthalenecarboximidamide] was tested. Which IC50 did it give?
**A.** 4170 nM

**Q.** `N=C(N)c1ccc2cc(C#Cc3ccc(N)cc3)ccc2c1` [Example 121, 6-[(4-aminophenyl)ethynyl]-2-naphthalenecarboximidamide] was tested. Which IC50 did it give?
**A.** 890 nM

**Q.** For `COc1ccc(C#Cc2ccc3cc(C(=N)N)ccc3c2)cc1CCN` [Example 125, 6-[[3-(2-aminoethyl)-4-methoxyphenyl]ethynyl]-2-naphthalenecarboximidamide], which IC50 is on record?
**A.** 230 nM

**Q.** How did the IC50 turn out when `N=C(N)c1ccc2cc(C#Cc3ccc(CO)cc3)ccc2c1` [Example 126, 6-[[4-(hydroxymethyl)phenyl]ethynyl]-2-naphthalenecarboximidamide] was run?
**A.** 870 nM

**Q.** How did the IC50 turn out when `COc1ccc2ccc(C(=N)N)cc2c1C1=CC(=O)CC1` [Example 131, 7-methoxy-8-(3-oxo-1-cyclopenten-1-yl)-2-naphthalenecarboximidamide] was run?
**A.** 4180 nM

**Q.** For `N=C(N)c1ccc2cc(NC(=O)C3CCC(CN)CC3)ccc2c1` (centres unmarked) [Example 139, N-[6-(aminoiminomethyl)-2-naphthalenyl]-4-4-(aminomethyl)cyclohexanescarboxamide], which IC50 is on record?
**A.** 2640 nM

**Q.** Which IC50 does the source give for `N=C(N)c1ccc2cc(NC(=O)Nc3ccc(CN)cc3)ccc2c1` [Example 140, N-[6-(aminoiminomethyl)-2-naphthalenyl]-N′-[(4-aminomethyl)phenyl]urea] here?
**A.** 460 nM

**Q.** How did the IC50 turn out when `N=C(N)c1ccc2cc(-c3ncc(-c4ccccc4)o3)ccc2c1` [Example 144, 6-(5-phenyl-2-oxazolyl)-2-naphthalenecarboximidamide] was run?
**A.** 1260 nM

**Q.** With `N=C(N)c1ccc2cc(-c3ncc(-c4ccccc4)s3)ccc2c1` [Example 145, 6-(5-phenyl-2-thiazolyl)-2-naphthalenecarboximidamide] as the molecule, how does the IC50 read?
**A.** 2590 nM

**Q.** `COc1ccc2ccc(C(=N)N)cc2c1Sc1ccccc1` [Example 149, 7-methoxy-8-(phenylthio)-2-naphthalenecarboximidamide] was tested. Which IC50 did it give?
**A.** 3800 nM

**Q.** With `COc1ccc2ccc(C(=N)N)cc2c1Nc1cnccn1` [Example 150, 7-methoxy-8-(pyrazinylamino)-2-naphthalenecarboximidamide] as the molecule, how does the IC50 read?
**A.** 160 nM

**Q.** For `CSc1cc(-c2cc(C(=O)Nc3ccccc3)cc3ccc(C(=N)N)cc23)co1` [Example 154, 6-(aminoiminomethyl-4-[5-(methylthio)-3-furanyl)]-N-phenyl-2-naphthalenecarboxamide], which IC50 is on record?
**A.** 35 nM

**Q.** `COC(=O)Nc1cc(C(=O)Nc2ccc(CN)cc2)cc2ccc(C(N)=NO)cc12` [Example 170, methyl [3-[[[4-(aminomethyl)phenyl]amino]carbonyl]-7-[4-amino(hydroxyimino)methyl]-1-naphthalenyl]carbamate] was tested. Which IC50 did it give?
**A.** 695 nM

**Q.** With `NC(=NO)c1ccc2cc(C(=O)Nc3ccccc3)ccc2c1` [Example 171] as the molecule, how does the IC50 read?
**A.** > 30000 nM

**Q.** How did the IC50 turn out when `N=C(N)c1ccc2cccc(Nc3ccccn3)c2c1` [Example 174, 8-(2-pyridinylamino)-2-naphthalenecarboximidamide] was run?
**A.** 170 nM

**Q.** How did the IC50 turn out when `N=C(N)c1ccc2cc(OCc3ccc(CO)cc3)ccc2c1` [Example 176, 6-[4-[(hydroxymethyl)phenyl]methoxy]-2-naphthalenecarboximidamide] was run?
**A.** 5010 nM

**Q.** How did the IC50 turn out when `N=C(NO)c1ccc2cccc(Nc3ncccn3)c2c1` [Example 177, N-hydroxy-8-(2-pyrimidinylamino)-2-naphthalenecarboximidamide] was run?
**A.** 14900 nM

**Q.** Which IC50 does the source give for `NC(=NO)c1ccc2cc(C(=O)Nc3ccccc3)cc(Nc3ncccn3)c2c1` [Example 181] here?
**A.** 8920 nM

**Q.** Which IC50 does the source give for `COC(=O)c1ccc(COc2ccc3ccc(C(N)=NO)cc3c2)cc1` [Example 182] here?
**A.** > 30000 nM

**Q.** For `N=C(N)c1ccc2ccc(OCCN3CCOCC3)cc2c1` [Example 206, 7-[2-(4-morpholinyl)ethoxy]-2-naphthalenecarboximidamide], which IC50 is on record?
**A.** 5730 nM

**Q.** Which IC50 does the source give for `N=C(N)c1ccc2cc(C3CC3c3ccc(CO)cc3)ccc2c1` (centres unmarked) [Example 215, 6-[2-[4-(hydroxymethyl)phenyl]-1-cyclopropyl]-2-naphthalenecarboximidamide] here?
**A.** 1100 nM

**Q.** How did the IC50 turn out when `CCOC(=O)NC(=N)c1ccc2cc(C3CC3c3ccccc3)ccc2c1` (centres unmarked) [Example 216, N-(ethoxycarbonyl)-6-(2-phenyl-1-cyclopropyl)-2-naphthalenecarboximidamide] was run?
**A.** > 30000 nM

**Q.** With `CSCc1cc(-c2cc(C(=O)Nc3ccccc3)cc3ccc(C(=N)N)cc23)co1` [Example 229] as the molecule, how does the IC50 read?
**A.** 117 nM

Same assay, conditions: Inhibitory potency against urokinase; substrate S-2444 at 200 μM, enzyme 2-3 nM, pH 7.4, 405 nm; read-out: IC50

**Q.** With `CC(C)(C)OC(=O)Nc1ccc(NC(=O)Nc2ccc3cc(C(=N)N)ccc3c2)cc1` [Example 79, 1,1-dimethylethyl [4-[[[6-aminoiminomethyl)-2-naphthalenyl)amino]carbonyl]amino]phenyl carbamate] as the molecule, how does the IC50 read?
**A.** 960 nM

**Q.** Which IC50 does the source give for `N=C(N)c1ccc2cc(/C=C/c3ccc(C(N)=O)cc3)ccc2c1` [Example 88, (E)-4-[2-(6-Aminoininomethyl-2-naphthalenyl)ethenyl]benzamide] here?
**A.** 2730 nM

**Q.** For `[H]/N=C(/N)c1ccc2cc(C=Cc3cccc(CO)c3)ccc2c1` [Example 96, (E)-6-[2-[(3-hydroxymethyl)phenyl]ethenyl]-2-naphthalenecarboximidamide], which IC50 is on record?
**A.** 860 nM

**Q.** With `[H]/N=C(/N)c1ccc2cc(C=Cc3ccc(CN(C)C)cc3)ccc2c1` [Example 107, (E)-6-[2-[[4-(dimethylamino)methyl]phenyl]ethenyl]-2-naphthalenecarboximidamide] as the molecule, how does the IC50 read?
**A.** 2340 nM

**Q.** How did the IC50 turn out when `COC(=O)CCCCOc1ccc2ccc(C(=N)N)cc2c1` [Example 119, methyl 5-[7-[(aminoiminomethyl)-2-naphthalenyl]oxy]pentanoate] was run?
**A.** 4410 nM

**Q.** Which IC50 does the source give for `CC(C)(C)OC(=O)NCc1ccc(C#Cc2ccc3cc(C(=N)N)ccc3c2)cc1` [Example 123, 1,1-dimethylethyl [[4-[[6-(aminoiminomethyl)-2-naphathalenyl]ethynyl]phenyl]methyl]carbamate] here?
**A.** 1240 nM

**Q.** Which IC50 does the source give for `CC(C)(C)OC(=O)NCC1CCC(C(=O)Nc2ccc3cc(C(=N)N)ccc3c2)CC1` (centres unmarked) [Example 137, 1,1-dimethylethyl [[4-[[[6-(aminoiminomethyl)-2-naphathalenyl]amino]carbonyl]-cyclohexyl]methyl]carbamate] here?
**A.** 820 nM

**Q.** `COC(=O)Nc1cc(C(=O)Nc2ccc(CN)cc2)cc2ccc(C(=N)N)cc12` [Example 141, methyl [7-(aminoiminomethyl)-3-[[[4-(aminomethyl)phenyl]amino]carbonyl]-1-naphathalenyl]carbamate] was tested. Which IC50 did it give?
**A.** 1.17 nM

**Q.** For `COC(=O)NCc1cccc2ccc(C(=N)N)cc12` [Example 155, methyl [7-(aminoiminomethyl)-1-naphthalenyl]methyl carbamate], which IC50 is on record?
**A.** 2330 nM

**Q.** With `N=C(N)c1ccc2cc(C#Cc3ccccn3)ccc2c1` [Example 179, 6-(2-pyridinylethynyl)-2-naphthalenecarboximidamide] as the molecule, how does the IC50 read?
**A.** 1610 nM

**Q.** How did the IC50 turn out when `Cc1cc(NC(=O)c2ccc3cc(C(=N)N)ccc3c2)no1` [Example 192] was run?
**A.** 1600 nM

**Q.** How did the IC50 turn out when `N=C(N)c1ccc2cc(C(=O)Nc3ncc(Br)s3)ccc2c1` [Example 197] was run?
**A.** 2030 nM

**Q.** How did the IC50 turn out when `CCCSc1cc(-c2cc(C(=O)Nc3ccccc3)cc3ccc(C(=N)N)cc23)co1` [Example 201] was run?
**A.** 77 nM

**Q.** With `N=C(N)c1ccc2cc(C(=O)Nc3ccccc3)cc(C3CCCN3)c2c1` (centres unmarked) [Example 207, 6-(aminoiminomethyl)-N-phenol-4-(2-pyrrolidinyl)-2-naphthalenecarboxamide] as the molecule, how does the IC50 read?
**A.** 4120 nM

**Q.** How did the IC50 turn out when `N=C(N)c1ccc2cc(OCC(=O)O)ccc2c1` [Example 212] was run?
**A.** 5090 nM

**Q.** For `COC(=O)c1ccc(COc2ccc3cc(C(=N)N)ccc3c2)cc1` [Example 213], which IC50 is on record?
**A.** 4580 nM

**Q.** How did the IC50 turn out when `N=C(N)c1ccc2cc(C(=O)Nc3cccc(OCc4ccccc4)c3)ccc2c1` [Example 222] was run?
**A.** 346 nM

**Q.** Which IC50 does the source give for `CCSC1CC(c2cc(C(=O)Nc3ccccc3)cc3ccc(C(=N)N)cc23)CO1` (centres unmarked) [Example 232, 6-(aminoiminomethyl)-4-[5-(ethythio)tetrahydro-3-furanyl]-N-phenyl-2-naphthalenecarboxamide] here?
**A.** 123 nM

**Q.** Which IC50 does the source give for “(E)-3-[7-(aminoiminomethyl)-2-methoxy-1-naphthalenyl)-2-propenamide [Example 120]” here?
**A.** 930 nM

**Q.** “(E)-4-[2-(6-Aminoiminomethyl-2-naphthalenyl)ethenyl]benzenesulfonamide [Example 83]” was tested. Which IC50 did it give?
**A.** 2240 nM
